ChEMBL document CHEMBL4396940, “Synthesis and biological evaluation of 4-(piperid-3-yl)amino substituted 6-pyridylquinazolines as potent PI3Kδ inhibitors” (Bioorg Med Chem, 2019)
pIC50: −log10 of the molar value.

Key:
[1] = target: T1, Phosphatidylinositol 4,5-bisphosphate 3-kinase catalytic subunit delta isoform (Homo sapiens, UniProt O00329); experiment: Inhibition of PI3K delta (unknown origin) using phosphatidyl inositol as substrate measured after 60 mins in presence of ATP by Kinase-Glo Plus reagent-based luminescence assay
T1 sequence (O00329 whole entry): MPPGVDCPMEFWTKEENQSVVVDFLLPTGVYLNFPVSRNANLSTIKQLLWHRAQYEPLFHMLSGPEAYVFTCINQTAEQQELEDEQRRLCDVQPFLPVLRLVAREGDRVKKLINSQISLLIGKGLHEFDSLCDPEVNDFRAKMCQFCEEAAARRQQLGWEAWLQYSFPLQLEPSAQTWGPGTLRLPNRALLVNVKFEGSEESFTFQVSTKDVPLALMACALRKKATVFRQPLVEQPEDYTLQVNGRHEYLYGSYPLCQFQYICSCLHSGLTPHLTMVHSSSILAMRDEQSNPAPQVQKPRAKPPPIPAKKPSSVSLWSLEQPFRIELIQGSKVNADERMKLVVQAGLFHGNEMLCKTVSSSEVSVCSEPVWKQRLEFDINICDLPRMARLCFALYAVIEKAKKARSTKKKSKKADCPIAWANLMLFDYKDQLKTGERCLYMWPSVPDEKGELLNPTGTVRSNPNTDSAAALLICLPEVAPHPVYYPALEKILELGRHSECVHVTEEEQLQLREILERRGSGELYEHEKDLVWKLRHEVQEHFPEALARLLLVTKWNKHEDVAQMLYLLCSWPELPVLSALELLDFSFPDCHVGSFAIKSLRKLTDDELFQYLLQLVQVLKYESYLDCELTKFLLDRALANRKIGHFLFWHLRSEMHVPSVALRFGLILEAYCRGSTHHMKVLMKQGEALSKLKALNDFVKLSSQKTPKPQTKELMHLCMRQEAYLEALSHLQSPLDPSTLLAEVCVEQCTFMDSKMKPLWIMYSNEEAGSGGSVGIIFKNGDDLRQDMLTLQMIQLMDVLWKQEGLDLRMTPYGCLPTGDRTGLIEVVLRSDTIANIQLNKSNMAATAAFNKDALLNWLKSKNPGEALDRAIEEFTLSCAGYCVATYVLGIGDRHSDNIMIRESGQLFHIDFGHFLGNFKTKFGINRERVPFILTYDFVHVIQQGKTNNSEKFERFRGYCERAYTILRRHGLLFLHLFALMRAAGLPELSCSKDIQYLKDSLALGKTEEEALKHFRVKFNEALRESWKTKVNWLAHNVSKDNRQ

[2] = system: SU-DHL-6; experiment: Antiproliferative activity against human SUDHL6 cells by MTT assay; assay type: functional, cell-based
[3] = target: Phosphatidylinositol 4,5-bisphosphate 3-kinase catalytic subunit gamma isoform (Homo sapiens, UniProt P48736); experiment: Inhibition of PI3K gamma (unknown origin) using phosphatidyl inositol as substrate measured after 60 mins in presence of ATP by Kinase-Glo Plus reagent-based luminescence assay
Phosphatidylinositol 4,5-bisphosphate 3-kinase catalytic subunit gamma isoform, sequence (P48736 whole entry, canonical isoform): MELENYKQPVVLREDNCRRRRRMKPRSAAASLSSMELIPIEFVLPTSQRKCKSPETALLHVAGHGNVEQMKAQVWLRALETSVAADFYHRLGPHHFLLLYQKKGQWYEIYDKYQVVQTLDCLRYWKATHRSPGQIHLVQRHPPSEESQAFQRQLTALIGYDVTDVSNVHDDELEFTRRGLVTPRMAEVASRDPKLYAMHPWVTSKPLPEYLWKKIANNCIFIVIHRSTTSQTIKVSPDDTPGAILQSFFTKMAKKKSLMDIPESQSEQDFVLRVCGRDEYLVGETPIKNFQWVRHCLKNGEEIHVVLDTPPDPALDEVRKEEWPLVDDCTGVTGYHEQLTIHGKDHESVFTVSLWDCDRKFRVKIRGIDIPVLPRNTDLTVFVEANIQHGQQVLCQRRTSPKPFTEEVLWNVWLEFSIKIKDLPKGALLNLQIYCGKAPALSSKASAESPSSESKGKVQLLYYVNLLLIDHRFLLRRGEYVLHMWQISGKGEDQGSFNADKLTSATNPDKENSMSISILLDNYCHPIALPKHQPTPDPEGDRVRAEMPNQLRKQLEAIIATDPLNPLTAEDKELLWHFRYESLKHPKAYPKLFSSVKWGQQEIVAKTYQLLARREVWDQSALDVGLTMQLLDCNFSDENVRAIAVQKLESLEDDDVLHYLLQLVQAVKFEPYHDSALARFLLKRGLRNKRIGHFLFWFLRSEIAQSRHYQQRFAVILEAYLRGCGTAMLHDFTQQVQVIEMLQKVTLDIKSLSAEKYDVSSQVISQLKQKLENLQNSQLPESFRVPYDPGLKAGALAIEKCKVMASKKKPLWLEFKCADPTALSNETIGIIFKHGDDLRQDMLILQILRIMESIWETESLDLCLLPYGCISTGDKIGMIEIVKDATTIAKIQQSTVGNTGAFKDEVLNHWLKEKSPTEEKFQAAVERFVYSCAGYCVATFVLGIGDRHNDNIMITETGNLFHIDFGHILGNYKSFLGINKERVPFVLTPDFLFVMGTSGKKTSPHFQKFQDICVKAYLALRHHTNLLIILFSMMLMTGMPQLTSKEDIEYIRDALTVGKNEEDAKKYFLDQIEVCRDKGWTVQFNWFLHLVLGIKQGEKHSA

[4] = target: Phosphatidylinositol 4,5-bisphosphate 3-kinase catalytic subunit alpha isoform (Homo sapiens, UniProt P42336); experiment: Inhibition of PI3K alpha (unknown origin) using phosphatidyl inositol as substrate measured after 60 mins in presence of ATP by Kinase-Glo Plus reagent-based luminescence assay
Phosphatidylinositol 4,5-bisphosphate 3-kinase catalytic subunit alpha isoform, sequence (P42336 whole entry, canonical isoform): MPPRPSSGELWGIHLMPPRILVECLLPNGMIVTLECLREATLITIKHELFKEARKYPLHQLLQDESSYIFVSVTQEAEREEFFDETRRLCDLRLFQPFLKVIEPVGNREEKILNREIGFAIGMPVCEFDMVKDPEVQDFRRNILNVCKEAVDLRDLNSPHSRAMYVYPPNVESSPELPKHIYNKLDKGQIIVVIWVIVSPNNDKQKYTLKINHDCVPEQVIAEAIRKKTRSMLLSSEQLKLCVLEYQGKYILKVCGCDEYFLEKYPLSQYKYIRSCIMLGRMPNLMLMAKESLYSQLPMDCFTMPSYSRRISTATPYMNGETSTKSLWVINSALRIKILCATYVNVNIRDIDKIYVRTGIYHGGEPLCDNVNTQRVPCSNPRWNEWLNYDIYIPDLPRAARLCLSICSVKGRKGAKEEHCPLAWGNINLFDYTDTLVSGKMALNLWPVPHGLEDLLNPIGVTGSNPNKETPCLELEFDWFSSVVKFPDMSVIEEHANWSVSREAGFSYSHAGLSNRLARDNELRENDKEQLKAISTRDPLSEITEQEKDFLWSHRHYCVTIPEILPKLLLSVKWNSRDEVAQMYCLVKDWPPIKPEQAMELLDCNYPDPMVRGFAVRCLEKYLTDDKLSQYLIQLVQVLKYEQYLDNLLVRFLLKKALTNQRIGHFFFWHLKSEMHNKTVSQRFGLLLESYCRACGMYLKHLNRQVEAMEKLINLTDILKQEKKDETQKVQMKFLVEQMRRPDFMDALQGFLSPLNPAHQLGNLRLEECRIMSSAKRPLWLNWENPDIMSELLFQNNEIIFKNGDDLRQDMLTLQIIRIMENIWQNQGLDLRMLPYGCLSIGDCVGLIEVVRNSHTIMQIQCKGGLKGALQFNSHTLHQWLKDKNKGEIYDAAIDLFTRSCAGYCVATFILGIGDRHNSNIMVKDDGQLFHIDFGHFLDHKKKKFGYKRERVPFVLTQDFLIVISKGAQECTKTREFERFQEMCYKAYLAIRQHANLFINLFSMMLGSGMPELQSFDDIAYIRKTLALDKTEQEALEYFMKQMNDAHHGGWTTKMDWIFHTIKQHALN

[5] = system: MCF7; experiment: cells; settings: Homo sapiens
Description: Antiproliferative activity against human MCF7 cells by MTT assay

[6] = target: T2, Phosphatidylinositol 4,5-bisphosphate 3-kinase catalytic subunit delta isoform (Homo sapiens) (UniProt O00329); experiment: Inhibition of PI3K delta in human SUDHL6 cells assessed as reduction in AKT phosphorylation at S473 measured after 8 hrs by Western blot analysis; assay type: cell-based
T2 sequence (whole entry): T1 sequence (O00329 whole entry)

[7] = system: Raji; experiment: Antiproliferative activity against human Raji cells by MTT assay; assay type: functional, cell-based
[8] = system: Ramos; experiment: Antiproliferative activity against human Ramos cells by MTT assay; assay type: functional, cell-based
[9] = system: HCT-116; experiment: cells; settings: Homo sapiens
Description: Antiproliferative activity against human HCT116 cells by MTT assay

[10] = target: Phosphatidylinositol 4,5-bisphosphate 3-kinase catalytic subunit beta isoform (Homo sapiens, UniProt P42338); experiment: Inhibition of PI3K beta (unknown origin) using phosphatidyl inositol as substrate measured after 60 mins in presence of ATP by Kinase-Glo Plus reagent-based luminescence assay
Phosphatidylinositol 4,5-bisphosphate 3-kinase catalytic subunit beta isoform, sequence (P42338 whole entry, canonical isoform): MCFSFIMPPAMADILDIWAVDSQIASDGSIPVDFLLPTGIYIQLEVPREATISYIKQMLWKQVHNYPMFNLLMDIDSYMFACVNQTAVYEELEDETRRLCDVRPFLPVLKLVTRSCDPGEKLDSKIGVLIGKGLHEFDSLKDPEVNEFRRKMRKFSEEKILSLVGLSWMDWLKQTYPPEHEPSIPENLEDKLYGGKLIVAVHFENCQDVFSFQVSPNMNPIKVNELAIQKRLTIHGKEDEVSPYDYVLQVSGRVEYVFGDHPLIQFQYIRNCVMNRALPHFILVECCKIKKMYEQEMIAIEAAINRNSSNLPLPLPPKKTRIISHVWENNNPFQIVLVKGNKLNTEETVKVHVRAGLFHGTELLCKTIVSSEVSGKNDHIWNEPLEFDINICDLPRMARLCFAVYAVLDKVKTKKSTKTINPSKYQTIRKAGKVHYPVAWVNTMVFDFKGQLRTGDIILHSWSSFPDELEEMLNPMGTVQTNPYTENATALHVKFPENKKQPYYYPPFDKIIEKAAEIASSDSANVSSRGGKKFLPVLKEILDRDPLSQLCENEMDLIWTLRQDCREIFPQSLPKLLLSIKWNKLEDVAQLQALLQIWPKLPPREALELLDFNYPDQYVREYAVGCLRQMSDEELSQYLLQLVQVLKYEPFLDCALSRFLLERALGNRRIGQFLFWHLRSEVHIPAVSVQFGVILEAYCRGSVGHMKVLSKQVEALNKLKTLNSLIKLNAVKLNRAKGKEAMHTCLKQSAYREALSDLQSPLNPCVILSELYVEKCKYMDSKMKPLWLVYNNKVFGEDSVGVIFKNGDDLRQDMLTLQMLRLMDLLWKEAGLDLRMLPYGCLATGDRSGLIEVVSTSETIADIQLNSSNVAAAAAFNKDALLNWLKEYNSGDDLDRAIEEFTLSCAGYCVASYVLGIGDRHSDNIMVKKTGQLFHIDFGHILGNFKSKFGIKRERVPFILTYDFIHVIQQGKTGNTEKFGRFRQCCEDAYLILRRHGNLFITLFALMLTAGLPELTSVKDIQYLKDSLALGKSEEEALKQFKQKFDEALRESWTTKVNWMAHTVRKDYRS

[11] = target: T1, Phosphatidylinositol 4,5-bisphosphate 3-kinase catalytic subunit delta isoform; experiment: Inhibition of PI3K delta (unknown origin)

| pIC50 [1] | pIC50 [2] | pIC50 [5] | pIC50 [7] | pIC50 [8] | pIC50 [9] | SMILES | further results |
| --- | --- | --- | --- | --- | --- | --- | --- |
| 8.17 | 6.64 |  |  |  |  | CCOC(=O)CN1CCC[C@H](Nc2ncnc3ccc(-c4cnc(OC)c(C(F)(F)F)c4)cc23)C1 |  |
| 8.05 | 6.42 |  |  |  |  | COc1ncc(-c2ccc3ncnc(N[C@H]4CCCN(C(=O)CCl)C4)c3c2)cc1C#N |  |
| 7.57 | 3.90 |  |  |  |  | COc1ncc(-c2ccc3ncnc(N[C@H]4CCCN(C(=O)C(F)(F)F)C4)c3c2)cc1[N+](=O)[O-] |  |
| 8.49 | 6.30 |  |  |  |  | CCOC(=O)CN1CCC[C@H](Nc2ncnc3ccc(-c4cnc(OC)c(C#N)c4)cc23)C1 |  |
| 9.15 | 6.92 | < 5.00 | < 5.00 | < 5.00 | < 5.00 | COc1ncc(-c2ccc3ncnc(N[C@H]4CCCN(C(=O)c5cccnc5)C4)c3c2)cc1C#N | pIC50 [3]: 8.70; pIC50 [4]: 6.92; inhibition [6]: Dose-dependent effect; pIC50 [10]: 8.04 |
| 8.11 | 6.82 |  |  |  |  | COc1ncc(-c2ccc3ncnc(N[C@H]4CCCN(C(=O)C5CCOCC5)C4)c3c2)cc1C#N |  |
| 8.60 | 5.61 |  |  |  |  | COc1ncc(-c2ccc3ncnc(N[C@H]4CCCN(C(=O)C5CCNCC5)C4)c3c2)cc1C#N |  |
| 8.49 | 6.68 |  |  |  |  | COc1ncc(-c2ccc3ncnc(N[C@H]4CCCN(C(=O)C(F)(F)F)C4)c3c2)cc1C#N |  |
|  |  | 6.70 | 6.28 | 6.40 | 6.52 | Cn1c(=O)n(-c2ccc(C(C)(C)C#N)cc2)c2c3cc(-c4cnc5ccccc5c4)ccc3ncc21 [DACTOLISIB] |  |
| 8.33 | 5.69 |  |  |  |  | COc1ncc(-c2ccc3ncnc(N[C@H]4CCCN(CCO)C4)c3c2)cc1C#N |  |
| 8.43 | 6.36 | < 5.00 | < 5.00 | < 5.00 | < 5.00 | COc1ncc(-c2ccc3ncnc(N[C@H]4CCCN(C(=O)[C@H](C)N)C4)c3c2)cc1C#N | pIC50 [3]: 6.68; pIC50 [4]: 7.74; pIC50 [10]: 6.83 |
| 8.03 | 6.38 |  |  |  |  | COc1ncc(-c2ccc3ncnc(N[C@H]4CCCN(C(=O)C5CCN(C)CC5)C4)c3c2)cc1C#N |  |
|  | 7.48 | < 5.00 | < 5.00 | < 5.00 | < 5.00 | CC[C@H](Nc1ncnc2[nH]cnc12)c1nc2cccc(F)c2c(=O)n1-c1ccccc1 [IDELALISIB] |  |
|  |  |  |  |  |  | COc1ncc(-c2ccc3ncnc(O[C@H]4CCN(C(=O)C5CCOCC5)C4)c3c2)cc1C#N | pIC50 [11]: 8.31 |
| 8.89 | 6.80 | < 5.00 | < 5.00 | < 5.00 | < 5.00 | COc1ncc(-c2ccc3ncnc(N[C@H]4CCCN(C(=O)CN(C)C)C4)c3c2)cc1C#N | pIC50 [3]: 6.60; pIC50 [4]: 7.66; pIC50 [10]: 6.82 |
| 7.84 | 7.82 |  |  |  |  | COc1ncc(-c2ccc3ncnc(N[C@H]4CCCN(C(=O)CCBr)C4)c3c2)cc1C#N |  |
